Reference: patent US20100029542A1, “PROTEIN STERILISATION BY RADIATION AND ADDITION OF A STABILISING COMPOSITION” (priority 2006, published 2010)

Experiments:
glucose oxidase = molecular target: T1, glucose oxidase (Aspergillus niger, UniProt P13006); assay: Activity recovery of glucose oxidase in dry formulations following gamma irradiation; assay type: physicochemical; conditions: glucose oxidase 350 μg mL^−1 prior to drying, dry, 25-40 kGy
T1 construct: purchased Biocatalysts G575P
Experimental: (§1) In each example, an aqueous solution of a protein was prepared with selected additives in an Eppendorf tube or in a glass vial. Water was removed from the formulation by drying under a stream of nitrogen at 30° C. and subsequent incubation at atmospheric pressure in the presence of a dessicant. The Eppendorf tubes or the glass vials were sealed and delivered to an industrial sterilisation service for gamma irradiation, with a dose range typical for sterile medical products. The gamma-irradiated samples were reconstituted on their return and analysed for protein activity or structural integrity. The results were compared with those achieved using control (i.e. non-irradiated) samples.
(§2) The dry samples (approx. 20 μg in an Eppendorf tube) were gamma-irradiated by an industry-standard commercial sterilising service provided by Isotron PLC (Swindon, Wilts, UK), using a Cobalt 60 gamma source at ambient temperature. The radiation dose was in the range of 25-40 kGy.
(§3) The original solutions (i.e. solutions prior to drying) contained 350 μg mL^−1 of glucose oxidase and typically the total of 100 mM of protective compounds (i.e. 100 mM in case of a single compound, 50 mM+50 mM in case of two compounds, 33.3 mM+33.3 mM+33.3 mM in the case of three compounds etc.). The solutions were dried and gamma irradiated. Following the gamma irradiation, the samples, both pre- and post-gamma irradiated, were assayed for glucose oxidase activity. This was performed according to the following procedure:
Water was added to the sample to achieve 350 μg mL^−1 of glucose oxidase. 50 μL of the solution was added to 50 mL of deionised water. The following solutions were then added: • 10 mL of reagent mix (5 parts of 0.1 M sodium phosphate, pH 6+4 parts 2% w/w starch+1 part of 1 mg/mL lactoperoxidase enzyme); • 5 mL of 100 mM potassium iodide; and • 5 mL of 20% w/w glucose solution.
These were mixed together quickly. Time=0 was counted from the addition of the glucose. After 5 min, 1 ml of 5 M aq. hydrochloric acid was added to stop the reaction. The absorbance was then read at 630 nm using a Unicam UV-visible spectrophotometer (Type: Helios gamma). If the colour intensity was too great to allow an accurate reading, the sample was diluted with a defined volume of deionised water to bring the colour back on scale. The results were expressed as percentage recovery, by reference to the absorbance measured in the pre-gamma irradiation samples.

catalase = molecular target: T2, catalase (Bos taurus, UniProt P00432); assay: Activity recovery of catalase in dry formulations following gamma irradiation; assay type: physicochemical, bovine; conditions: Table 10, superoxide scavengers; catalase 100 μg mL^−1 prior to drying; dry; 25-40 kGy
T2 construct: Catalase (from bovine liver, Sigma C9322, 2380 U /mg solid); purchased Sigma C9322; host or cells: bovine liver
T2 sequence (P00432 2-527 limits assumed): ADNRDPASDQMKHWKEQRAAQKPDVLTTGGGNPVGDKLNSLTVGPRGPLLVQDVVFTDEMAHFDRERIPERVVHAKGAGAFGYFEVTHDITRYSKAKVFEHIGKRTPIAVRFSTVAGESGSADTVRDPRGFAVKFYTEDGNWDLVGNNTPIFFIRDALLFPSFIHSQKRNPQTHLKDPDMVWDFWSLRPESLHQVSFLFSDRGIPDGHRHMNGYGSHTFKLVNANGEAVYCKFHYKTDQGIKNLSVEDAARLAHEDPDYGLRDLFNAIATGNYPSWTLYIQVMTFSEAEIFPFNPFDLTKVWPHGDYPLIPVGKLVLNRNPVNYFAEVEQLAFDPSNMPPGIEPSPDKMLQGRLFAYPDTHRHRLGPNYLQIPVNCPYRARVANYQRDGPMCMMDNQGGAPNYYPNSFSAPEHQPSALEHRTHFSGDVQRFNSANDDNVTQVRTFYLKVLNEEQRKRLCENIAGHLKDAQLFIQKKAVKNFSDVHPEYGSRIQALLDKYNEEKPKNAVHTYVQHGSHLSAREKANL
Experimental: as §1, §2
as §3, with “contained 100” for “contained 350”, “of catalase” for “of glucose oxidase”
Water was added to the sample to achieve 100 μg mL^−1 of catalase. 100 μL of the solution was added to a mixture of 18 mL of PBS and 2 mL of hydrogen peroxide (30 mM in water) in a 125 mL polypropylene pot and mixed. The resulting mixture was incubated at room temperature precisely for 30 min. In the meantime, the following reagents were mixed in a plastic cuvette for spectrophotometric measurements: • 2.73 mL of citrate/phosphate buffer (0.1 M, pH 5.0) • 100 μL of tetramethylbenzidine (TMB) (3 mg/mL, dissolved in dimethyl sulphoxide (DMSO)) • 100 μL of lactoperoxidase
Following the 30 min incubation period, 70 μL of the catalase containing mixture was added to the cuvette and absorbance was read in approximately 30 s. The results were expressed as percentage recovery, by reference to the absorbance measured in the fresh samples (i.e. prior to incubation at increased temperature).

human growth hormone [1] = molecular target: T3, human growth hormone (Homo sapiens, UniProt P01241); assay: Recovery of structural integrity of human growth hormone in dry formulations following gamma irradiation (HPLC); assay type: physicochemical; conditions: structural integrity by HPLC, human growth hormone 2.5 mg mL^−1 prior to drying, 25-40 kGy
T3 construct: purchased National Institute of Biological Standards and Control; further samples on prescription from a GP surgery
T3 sequence (P01241 27-217): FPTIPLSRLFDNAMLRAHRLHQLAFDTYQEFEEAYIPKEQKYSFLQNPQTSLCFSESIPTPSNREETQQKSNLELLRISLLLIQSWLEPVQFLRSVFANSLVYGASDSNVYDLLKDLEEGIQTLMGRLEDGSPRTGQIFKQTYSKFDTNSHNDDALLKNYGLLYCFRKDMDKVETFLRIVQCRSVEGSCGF
Experimental: as §1, §2
Mobile phase was prepared by mixing 71 parts (by volume) of a solution of TRIS (0.05 M, in water adjusted with hydrochloric acid to a pH of 7.5) and 29 parts (by volume) of n-propylalcohol. The mobile phase was filtered prior to its use. The liquid chromatograph (Agilent 1100 series) was equipped with a 214 nm detector and a 4.6×250 mm column (Phenomenex 00G-4167-E0) packed with butylsilyl silica gel with a granulometry of 5 μm and a porosity of 30 nm, maintained at 45° C. The flow rate was maintained at 0.5 mL min^−1. 15 μL of aqueous samples of human growth hormone (typically 1-2.5 mg mL^−1) were injected. Results were expressed as % of peak area corresponding to the gamma irradiated sample with respect to that measured in non-irradiated sample.

human growth hormone [2] = molecular target: T3, human growth hormone; assay: as above; assay type: physicochemical; conditions: Table 4, prior-art antioxidants; structural integrity by HPLC; human growth hormone 2.5 mg mL^−1 prior to drying; dry; 25-40 kGy, ambient temperature

T1 sequence (P13006 17-605): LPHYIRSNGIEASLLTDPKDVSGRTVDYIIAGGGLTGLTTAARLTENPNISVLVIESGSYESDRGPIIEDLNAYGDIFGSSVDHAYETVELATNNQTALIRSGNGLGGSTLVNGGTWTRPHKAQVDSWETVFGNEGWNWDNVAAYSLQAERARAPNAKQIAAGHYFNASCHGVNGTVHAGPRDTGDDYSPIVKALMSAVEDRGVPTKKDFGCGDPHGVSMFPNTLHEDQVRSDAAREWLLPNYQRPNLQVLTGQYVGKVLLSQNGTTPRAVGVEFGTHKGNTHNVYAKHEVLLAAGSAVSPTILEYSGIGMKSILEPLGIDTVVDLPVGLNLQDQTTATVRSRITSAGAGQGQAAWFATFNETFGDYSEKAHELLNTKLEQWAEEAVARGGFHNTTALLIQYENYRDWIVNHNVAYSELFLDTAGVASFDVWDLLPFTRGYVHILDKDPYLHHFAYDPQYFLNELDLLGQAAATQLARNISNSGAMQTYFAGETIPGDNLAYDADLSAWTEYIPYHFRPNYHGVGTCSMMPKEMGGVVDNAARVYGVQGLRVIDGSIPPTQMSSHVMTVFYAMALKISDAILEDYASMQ

CSCC[C@H](N)C(=O)O [Methionine]
Enzyme activity remaining after gamma-irradiation (glucose oxidase; Table 3, prior-art antioxidants, ambient temperature, vs non-irradiated): 61.3%
Enzyme activity remaining after gamma-irradiation (glucose oxidase; Table 5, singlet oxygen scavengers, ambient temperature): 61.3%
Enzyme activity remaining after gamma-irradiation (glucose oxidase; Table 9, superoxide scavengers): 61.3%
Enzyme activity remaining after gamma-irradiation (catalase): 44.3%
Structural integrity remaining after gamma-irradiation (HPLC) (human growth hormone [1]; Table 4, prior-art antioxidants, ambient temperature): 69.7%
Structural integrity remaining after gamma-irradiation (HPLC) (human growth hormone [1]; Table 7, singlet oxygen scavengers): 69.7%
Structural integrity remaining after gamma-irradiation (HPLC) (human growth hormone [1]; Table 11, superoxide scavengers): 69.7%
Structural integrity remaining after gamma-irradiation (HPLC) (human growth hormone [2]): 69.7%
